Assay type in all cases: cell-based
Test [1] addresses T1, human glucose-dependent insulinotropic peptide receptor (GIPR) (Homo sapiens, UniProt P48546).
T1 construct: expressed in transfected cells
T1 sequence (P48546 22-466): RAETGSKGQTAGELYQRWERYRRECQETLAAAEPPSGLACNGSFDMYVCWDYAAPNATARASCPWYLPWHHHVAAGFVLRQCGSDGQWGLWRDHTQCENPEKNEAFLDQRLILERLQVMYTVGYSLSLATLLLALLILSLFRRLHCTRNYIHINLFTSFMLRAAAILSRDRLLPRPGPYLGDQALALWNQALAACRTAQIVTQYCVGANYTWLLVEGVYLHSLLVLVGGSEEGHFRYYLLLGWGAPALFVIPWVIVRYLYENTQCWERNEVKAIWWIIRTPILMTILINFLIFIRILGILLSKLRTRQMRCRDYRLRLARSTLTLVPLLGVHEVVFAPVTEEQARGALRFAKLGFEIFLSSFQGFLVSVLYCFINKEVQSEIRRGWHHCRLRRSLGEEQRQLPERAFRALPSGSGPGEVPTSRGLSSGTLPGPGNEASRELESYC
Put plainly: cAMP assay, human GIPR cells. The method, boiled down: (§1)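 Peptide-stimulated cAMP measured by two-step HTRF after a 30 min room-temperature incubation with receptor-expressing cells (hGLP-1R, hGIPR at 1×10^5 cells/ml; hGCGR at 2×10^5 cells/ml). Duplicate dilutions; EC50 from 4-parameter logistic fit of % Delta F.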

Test [2] addresses T2, human glucagon receptor (GCGR) (Homo sapiens, UniProt P47871).
T2 construct: expressed in transfected cells
Put plainly: cAMP assay, human GCGR cells. The method, boiled down:
as §1

Test [3] addresses T3, GLP-1R (INS1e assay) (Rattus norvegicus, UniProt P32301).
T3 construct: endogenous in cells; host or cells: INS-1E cells
T3 sequence (P32301 22-463): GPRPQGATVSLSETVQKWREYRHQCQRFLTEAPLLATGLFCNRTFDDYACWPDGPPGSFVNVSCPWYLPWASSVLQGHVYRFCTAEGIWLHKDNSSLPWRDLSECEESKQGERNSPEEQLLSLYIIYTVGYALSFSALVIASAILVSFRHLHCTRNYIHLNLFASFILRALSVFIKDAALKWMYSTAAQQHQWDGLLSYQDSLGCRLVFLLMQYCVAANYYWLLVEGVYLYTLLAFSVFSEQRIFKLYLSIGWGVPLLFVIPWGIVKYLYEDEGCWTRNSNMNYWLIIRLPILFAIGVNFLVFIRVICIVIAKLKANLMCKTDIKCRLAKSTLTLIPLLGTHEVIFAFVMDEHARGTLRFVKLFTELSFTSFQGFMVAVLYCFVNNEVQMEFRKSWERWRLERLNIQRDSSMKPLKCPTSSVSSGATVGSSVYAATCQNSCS
Description: INS1e assay, cAMP activity at GLP-1R. The note with it: mono-lipidated peptides. Put shortly: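 It pairs cAMP-d2 acceptor with anti-cAMP cryptate donor, both prepared 1/20 in conjugate/lysis buffer, applied as a two-step protocol.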

The target of test [4] is T4, human GLP-1 receptor (GLP-1R) (Homo sapiens, UniProt P43220).
T4 construct: expressed in transfected cells
Put plainly: cAMP assay, human GLP-1R cells. The method, boiled down: as §1

Where [5] appears, read: cAMP assay, first determination (n1), read-out: Primary assay EC50 GIP-R (n1).
[6] abbreviates: cAMP assay, second determination (n2), read-out: Primary assay EC50 GIP-R (n2).
[7] abbreviates: cAMP assay, first determination (n1), read-out: Primary assay EC50 Gluc-R (n1).
Where [8] appears, read: cAMP assay, second determination (n2), read-out: Primary assay EC50 Gluc-R (n2).
Where [9] appears, read: mean of n1 and n2, read-out: INS1e assay EC50 Mean pM GLP-1R.
The mark [10] stands for this setting: replicate n1, read-out: INS1e assay EC50 GLP-1R n1.
The mark [11] stands for this setting: replicate n2, read-out: INS1e assay EC50 GLP-1R n2.
Setting [12] is: cAMP assay, first determination (n1), read-out: Primary assay EC50 GLP-1R n1.
The mark [13] stands for this setting: cAMP assay, second determination (n2), read-out: Primary assay EC50 GLP-1R n2.
[14] abbreviates: mean of n1 and n2, read-out: Mean pM GLP-1R.

Like-named read-outs stand apart in the source and are kept apart here. Numbered stars: 1 amine (or outer) side, 2 acyl side, 3 side chain; on linkers, the order of the positions; unused ones are H or OH. Square brackets hold non-standard residues; d marks the D form. Side chains are listed from the residue outwards. Peptide text beside a SMILES is read from it. * marks the point of attachment. C18 diacid = O=C(O)CCCCCCCCCCCCCCCCC(=O)*; γGlu = O=C(O)[C@H](CCC(=O)[*:2])N[*:1]; Palmitoyl = CCCCCCCCCCCCCCCC(=O)*; αMeF = C[C@](N)(Cc1ccccc1)C(=O)O; αMeK = C[C@](N)(CCCCN)C(=O)O; αMeS = C[C@](N)(CO)C(=O)O; AEEA = NCCOCCOCC(=O)O; Aib = CC(C)(N)C(=O)O Where only a bound is given, the exact number is not on record here.

Consider five compounds from US10414811B2, “Protease-resistant lipidated GLP-1 analogs” (MEDIMMUNE LIMITED, priority 2015, dated 2019).

T2 sequence (P47871 26-477): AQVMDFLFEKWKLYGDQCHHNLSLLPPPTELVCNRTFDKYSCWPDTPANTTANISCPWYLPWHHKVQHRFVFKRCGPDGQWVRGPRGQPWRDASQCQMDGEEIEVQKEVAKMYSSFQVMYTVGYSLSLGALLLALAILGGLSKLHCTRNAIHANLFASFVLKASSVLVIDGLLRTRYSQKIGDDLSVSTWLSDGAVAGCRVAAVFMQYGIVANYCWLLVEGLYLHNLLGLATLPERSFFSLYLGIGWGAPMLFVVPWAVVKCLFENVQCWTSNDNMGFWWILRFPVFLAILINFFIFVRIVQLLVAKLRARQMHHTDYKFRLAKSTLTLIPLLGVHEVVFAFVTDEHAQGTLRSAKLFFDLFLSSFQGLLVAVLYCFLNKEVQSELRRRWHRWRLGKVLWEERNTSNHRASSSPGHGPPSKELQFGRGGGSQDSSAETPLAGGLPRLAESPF
T4 sequence (P43220 24-463): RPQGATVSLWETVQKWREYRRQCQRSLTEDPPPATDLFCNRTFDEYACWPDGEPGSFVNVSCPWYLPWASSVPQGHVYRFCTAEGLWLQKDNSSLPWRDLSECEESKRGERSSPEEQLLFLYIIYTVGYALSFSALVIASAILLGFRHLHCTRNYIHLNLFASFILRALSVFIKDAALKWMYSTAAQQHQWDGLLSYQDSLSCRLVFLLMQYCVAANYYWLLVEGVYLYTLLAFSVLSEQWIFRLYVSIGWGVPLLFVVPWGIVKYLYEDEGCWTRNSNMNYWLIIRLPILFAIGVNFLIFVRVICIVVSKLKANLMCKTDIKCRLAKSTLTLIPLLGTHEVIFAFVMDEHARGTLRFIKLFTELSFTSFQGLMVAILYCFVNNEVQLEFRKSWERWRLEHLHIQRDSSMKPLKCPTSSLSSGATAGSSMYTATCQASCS

Turning to `CCCCCCCCCCCCCCCC(=O)N[C@@H](CCC(=O)NCCCC[C@H](NC(=O)[C@](C)(Cc1ccccc1)NC(=O)[C@H](C)NC(=O)[C@@H](NC(=O)[C@](C)(Cc1ccccc1)NC(=O)[C@H](CCC(=O)O)NC(=O)[C@](C)(CCCCN)NC(=O)[C@H](C)NC(=O)[C@H](C)NC(=O)[C@H](CCC(=O)O)NC(=O)CNC(=O)[C@H](CCC(=O)O)NC(=O)[C@H](CC(C)C)NC(=O)[C@](C)(Cc1ccccc1)NC(=O)[C@H](CO)NC(=O)[C@](C)(CO)NC(=O)[C@@H](NC(=O)[C@H](CC(=O)O)NC(=O)[C@H](CO)NC(=O)[C@@H](NC(=O)[C@](C)(Cc1ccccc1)NC(=O)[C@H](CO)NC(=O)CNC(=O)[C@H](CCC(=O)O)NC(=O)C(C)(C)NC(=O)[C@@H](N)Cc1c[nH]cn1)[C@@H](C)O)C(C)C)[C@@H](C)CC)C(=O)N[C@H](C(=O)N[C@@](C)(CCCCN)C(=O)NCC(=O)NCC(N)=O)C(C)C)C(=O)O` [compound 74] (H-H[Aib]EGS[αMeF]TSDV[αMeS]S[αMeF]LEGEAA[αMeK]E[αMeF]IA[αMeF]K([γGlu-Palmitoyl])V[αMeK]GG-NH2), the EC50 in test [1] (setting [5]) was at least 28 nM; in test [1] (setting [6]), at least 28 nM; in test [2] (setting [7]) it was at least 28 nM; in test [2] (setting [8]) it was at least 28 nM; in test [3] (setting [9]) it was 102 pM; in test [3] (setting [10]), 77.4 pM. Besides, the EC50 in test [3] (setting [11]) turned out to be 127 pM; in test [4] (setting [12]), 2.3 pM.
With `CC[C@H](C)[C@H](NC(=O)[C@H](Cc1ccccc1)NC(=O)[C@H](CCC(=O)O)NC(=O)[C@H](CCCCN)NC(=O)[C@H](C)NC(=O)[C@H](C)NC(=O)[C@H](CCC(=O)O)NC(=O)CNC(=O)[C@H](CCC(=O)O)NC(=O)[C@H](CC(C)C)NC(=O)[C@](C)(Cc1ccccc1)NC(=O)[C@H](CO)NC(=O)[C@](C)(CO)NC(=O)[C@@H](NC(=O)[C@H](CC(=O)O)NC(=O)[C@H](CO)NC(=O)[C@@H](NC(=O)[C@](C)(Cc1ccccc1)NC(=O)[C@H](CO)NC(=O)CNC(=O)[C@H](CCC(=O)O)NC(=O)C(C)(C)NC(=O)[C@@H](N)Cc1c[nH]cn1)[C@@H](C)O)C(C)C)C(=O)N[C@@H](CCCCNC(=O)COCCOCCNC(=O)COCCOCCNC(=O)CC[C@H](NC(=O)CCCCCCCCCCCCCCCCC(=O)O)C(=O)O)C(=O)N[C@@H](Cc1c[nH]c2ccccc12)C(=O)N[C@H](C(=O)N[C@H](C(=O)N[C@@H](CCC(=O)O)C(=O)NCC(=O)NCC(N)=O)C(C)C)C(C)C` [compound 65] (H-H[Aib]EGS[αMeF]TSDV[αMeS]S[αMeF]LEGEAAKEFIK([AEEA-AEEA-γGlu-C18 diacid])WVVEGG-NH2), the EC50 in test [1] (setting [5]) is at least 25.1 nM; in test [1] (setting [6]), at least 25.1 nM; in test [2] (setting [7]), at least 25.1 nM; in test [2] (setting [8]) it was at least 25.1 nM; in test [3] (setting [9]) it was 3160 pM; in test [3] (setting [10]) it was 2570 pM. Besides, the EC50 in test [3] (setting [11]) came to 3740 pM; in test [4] (setting [12]), 19.7 pM; in test [4] (setting [13]) it was 14 pM; in test [4] (setting [14]), 16.9 pM.
Take `CC[C@H](C)[C@H](NC(=O)[C@](C)(Cc1ccccc1)NC(=O)[C@H](CCC(=O)O)NC(=O)[C@](C)(CCCCN)NC(=O)[C@H](C)NC(=O)[C@H](C)NC(=O)[C@H](CCC(=O)O)NC(=O)CNC(=O)[C@H](CCC(=O)O)NC(=O)[C@H](CC(C)C)NC(=O)[C@](C)(Cc1ccccc1)NC(=O)[C@H](CO)NC(=O)[C@](C)(CO)NC(=O)[C@@H](NC(=O)[C@H](CC(=O)O)NC(=O)[C@H](CO)NC(=O)[C@@H](NC(=O)[C@](C)(Cc1ccccc1)NC(=O)[C@H](CO)NC(=O)CNC(=O)[C@H](CCC(=O)O)NC(=O)C(C)(C)NC(=O)[C@@H](N)Cc1c[nH]cn1)[C@@H](C)O)C(C)C)C(=O)N[C@@H](C)C(=O)N[C@@H](CCCCNC(=O)COCCOCCNC(=O)COCCOCCNC(=O)CC[C@H](NC(=O)CCCCCCCCCCCCCCCCC(=O)O)C(=O)O)C(=O)N[C@H](C(=O)N[C@H](C(=O)N[C@@](C)(CCCCN)C(=O)NCC(=O)NCC(N)=O)C(C)C)C(C)C` [compound 104]: the EC50 in test [1] (setting [5]) was at least 26 nM; in test [1] (setting [6]), at least 25.6 nM; in test [2] (setting [7]) it was at least 26 nM; in test [2] (setting [8]) it was at least 25.6 nM; in test [3] (setting [9]), 331 pM; in test [3] (setting [10]), 391 pM. Besides, the EC50 worked out at 270 pM in test [3] (setting [11]) and 5.9 pM in test [4] (setting [12]).
Take `CCCCCCCCCCCCCCCCCC(=O)NCCOCCOCC(=O)NCCOCCOCC(=O)NCCCC[C@H](NC(=O)[C@@H](NC(=O)[C@@H](NC(=O)[C@](C)(Cc1ccccc1)NC(=O)[C@H](C)NC(=O)[C@@H](NC(=O)[C@](C)(Cc1ccccc1)NC(=O)[C@H](CCC(=O)O)NC(=O)[C@](C)(CCCCN)NC(=O)[C@H](C)NC(=O)[C@H](C)NC(=O)[C@H](CCC(=O)O)NC(=O)CNC(=O)[C@H](CCC(=O)O)NC(=O)[C@H](CC(C)C)NC(=O)[C@](C)(Cc1ccccc1)NC(=O)[C@H](CO)NC(=O)[C@](C)(CO)NC(=O)[C@@H](NC(=O)[C@H](CC(=O)O)NC(=O)[C@H](CO)NC(=O)[C@@H](NC(=O)[C@](C)(Cc1ccccc1)NC(=O)[C@H](CO)NC(=O)CNC(=O)[C@H](CCC(=O)O)NC(=O)C(C)(C)NC(=O)[C@@H](N)Cc1c[nH]cn1)[C@@H](C)O)C(C)C)[C@@H](C)CC)C(C)C)C(C)C)C(=O)NCC(=O)NCC(N)=O` [compound 189]: the EC50 in test [1] (first run (n1), cAMP activity, read-out: Primary assay EC50 GIP-R) is at least 27 nM; in test [1] (second run (n2), cAMP activity, read-out: Primary assay EC50 GIP-R), at least 27 nM; in test [2] (first run (n1), cAMP activity of substituted and mono-lipidated peptides, read-out: Primary assay EC50 Gluc-R), at least 27 nM; in test [2] (second run (n2), cAMP activity, read-out: Primary assay EC50 Gluc-R) it was at least 27 nM; in test [3] (setting [9]), 144 pM; in test [3] (setting [10]), 114 pM. The EC50 in test [3] (setting [11]) was found to be 173 pM; in test [4] (first run (n1), cAMP activity, read-out: Primary assay EC50 GLP-1R n1), 30 pM; in test [4] (setting [14]), 20.8 pM; in test [4] (second run (n2), cAMP activity, read-out: Primary assay EC50 GLP-1R n2) it was 12 pM.
Turning to `CCCCCCCCCCCCCCCC(=O)N[C@@H](CCC(=O)NCCCC[C@H](NC(=O)[C@H](C)NC(=O)[C@@H](NC(=O)[C@](C)(Cc1ccccc1)NC(=O)[C@H](CCC(=O)O)NC(=O)[C@](C)(CCCCN)NC(=O)[C@H](C)NC(=O)[C@H](C)NC(=O)[C@H](CCC(=O)O)NC(=O)CNC(=O)[C@H](CCC(=O)O)NC(=O)[C@H](CC(C)C)NC(=O)[C@](C)(Cc1ccccc1)NC(=O)[C@H](CO)NC(=O)[C@](C)(CO)NC(=O)[C@@H](NC(=O)[C@H](CC(=O)O)NC(=O)[C@H](CO)NC(=O)[C@@H](NC(=O)[C@](C)(Cc1ccccc1)NC(=O)[C@H](CO)NC(=O)CNC(=O)[C@H](CCC(=O)O)NC(=O)C(C)(C)NC(=O)[C@@H](N)Cc1c[nH]cn1)[C@@H](C)O)C(C)C)[C@@H](C)CC)C(=O)N[C@H](C(=O)N[C@H](C(=O)N[C@@](C)(CCCCN)C(=O)NCC(=O)NCC(N)=O)C(C)C)C(C)C)C(=O)O` [compound 75], the EC50 was at least 28 nM in test [1] (setting [5]); at least 28 nM in test [1] (setting [6]); at least 28 nM in test [2] (setting [7]); at least 28 nM in test [2] (setting [8]); 56 pM in test [3] (setting [9]); 49.7 pM in test [3] (setting [10]). Moreover, the EC50 is 63 pM in test [3] (setting [11]), 2 pM in test [4] (setting [12]), 1.4 pM in test [4] (setting [13]) and 1.7 pM in test [4] (setting [14]).
